Columns and labels:
[1] = photostability of sunscreen film on polyethylene under UV light at 365 nm, extraction and C18 chromatography; type: physicochemical; details: Example 1 composition (no tricontanyl polymer), between 4 and 8 hours of UV exposure, 2340 Watts/m^2
Method: To test the photostability of the sunscreen composition, 200-250 μl of the sunscreen composition was spread evenly over a 25 cm^2 piece of polyethylene film. The amount of sunscreen preparation was determined by weight, and the polyethylene film was dried for 1 hour at 35° C. After drying the film was exposed to […] (2340 Watts/m^2) of UV light at 365 nm for 0, 2, 4, 6 and 8 hours. Following light exposure, sunscreen was extracted with ethanol containing 1% acetic acid. Extracts were separated and quantitated with a C18 column with a methanol:water linear gradient.
The composition contains 3 wt. % avobenzone, 6 wt. % octocrylene, and 4 wt. % oxybenzophenone as sunscreen agents. Photo stability test of the composition was carried out as described in Example 1.

[2] = in vivo; cited from earlier work

With `COc1ccc(C(=O)CC(=O)c2ccc(C(C)(C)C)cc2)cc1` [avobenzone] the “loss of sunscreen agent with UV exposure” value [1] was ~50%.

For “Poly(vinylpyrrolidone/1-hexadecene) [PVPH]”, the dermal toxicity [2] is given as “no demonstrable dermal toxicity”.

For Poly(vinylpyrrolidone/eicosene) [PVPE], the dermal toxicity [2] is given as “no demonstrable dermal toxicity”.

Reference: US8128913B1, “Sunscreen composition with enhanced UV-A absorber stability and methods” (Skinvisible Pharmaceuticals, Inc., priority 2007, dated 2012)
